Results reported in patent US20250282779A1, “SUBSTITUTED 5,6,7,8-TETRAHYDROPYRIDO[2,3-D]PYRIMIDINE-2,4-DIONES FOR TREATING CARDIAC DISEASES” (MYOKARDIA, INC., priority 2018, published 2025).

Key:
[1] = system: rabbit skeletal myosin; assay: Myosin inhibition assay (rbskMF pCa 6 IC50); assay type: biochemical; settings: cardiac vs rabbit skeletal myofibrils
Source text: Myosin inhibition assay (rbskMF pCa 6 IC50 (μM))
Inhibition of the enzymatic activity of rabbit skeletal myosin associated with the release of ADP (adenosine diphosphate) at the calcium concentrate that achieves a 50% activation of the rabbit skeletal myofibril system. The procedure was the same as that of bovin cardiac myosin inhibition assay (bcMF pCa 6 IC50 (μM)) by replacing bovine cardiac myofibril with rabbit skeletal myofibril.

[2] = Reactive metabolite identification (glutathione adducts); assay type: in vitro ADME, human; settings: for % GSH-adduct (+NADPH, +GSH) relative to parent (−NADPH, −GSH): human liver microsomes, 30 μM, 60 min
Protocol: Reactive Metabolite Identification
In vitro determination of reactive metabolite formation for small molecules by detection of glutathione adducts formed in vitro in incubations with human liver microsomes fortified with NADPH and glutathione.
Methods: The metabolism of small molecules (30 μM) for glutathione adduct formation was assessed in incubations (200 μL volume, […], 60 min incubation time) with liver microsomes from human (1 mg/mL protein) conducted in potassium phosphate buffer (0.1 M, pH 7.4) for 1 h at 37° C. in a 96-well plate (2 mL well volume) and were performed in the absence of NADPH (used as a negative control) and in the presence of NADPH (1 mM) and glutathione (GSH, 10 mM). Incubations with liver microsomes were performed in a shaking water bath incubator with slow horizontal shaking (30 rpm). To obtain 30 μM incubation concentration of a compound, a 3 mM substrate stock solution in DMSO was used. Final incubation mixtures contained 148 μL of potassium phosphate buffer, 10 μL of liver microsome solution (20 mg protein/mL), 2 μL of the 3 mM substrate solution and where incubations were initiated by the addition of 40 μL of NADPH solution (5 mM dissolved in potassium phosphate buffer). Non-NADPH containing incubations were supplemented with 40 μL of potassium phosphate buffer. Post-incubation, reactions were terminated by adding an equal volume of acetonitrile containing 20 nM carbamazepine internal standard and 3% formic acid. Quenched samples then were centrifuged (4,600 rpm, 4° C., 10-min) after which the supernatants were transferred to a 96-well LC-MS sample analysis plate and diluted with one volume equivalent of HPLC-grade water, and then heat sealed with aluminum foil prior to analysis by liquid chromatography/mass spectrometry (LC-MS/MS).
Analyte identification: The LC-MS/MS detection (with in-line UV detection at 280 nm) of test compounds and potential GSH-adducts was focused on extracting selected ion chromatographic profiles using the protonated molecular ion MH^+ m/z for parent to 4 decimal places, and corresponding protonated molecular ions of predicted GSH-adduct metabolites (m/z MH^+ parent+305.0681 amu) using Xcalibur software (version 2.1.0, Thermo Fisher Scientific, Waltham, MA). Relative GSH-adduct abundance in vitro in liver microsome extracts was assessed using the LC/UV absorbance at 280 nm peak area ratio obtained by using Xcalibur software (version 2.1.0) between the detected GSH-adducts from NADPH- and GSH-fortified incubation extracts and the corresponding LC/UV peak area of the parent compound from minus NADPH containing incubation extracts. The extent of GSH-adduct formation was determined by LC-MS/MS analysis with in-line LC-UV detection at 280 nm by dividing the glutathione-adduct LC/UV peak area by the LC/UV peak area of the corresponding parent HCM-1 NG analog determined from analysis of control (-NAPDH, -GSH) incubations extracts.
Materials: Pooled male human (HLM, 50 donors) liver microsomes were obtained from Bioreclamation IVT (Baltimore, MD). Glutathione (GSH) and NADPH were purchased from Sigma Chemical Co. (St. Louis, MO). All solvents used for liquid chromatography-tandem mass spectrometry (LC-MS/MS) analyses were of chromatographic grade.
LC-MS Conditions: Extracts from incubations with liver microsomes and hepatocytes were characterized by LC-MS and LC-MS/MS on a Thermo Electron LTQ Orbitrap XL mass spectrometer coupled with a Dionex UltiMate 3000 UHPLC containing in-line diode array detection and an OAS-3300TXRS Autosampler (40 μL injection volume). Electrospray ionization (ESI) was employed in the positive ion mode with the needle potential held at 5.01 kV, a sheath flow rate of 35.02, aux flow rate of 9.99, a current of 2.6 uA, a capillary temperature of 325° C., and a capillary voltage of 15.99. Vacuum conditions used were an ion gauge pressure used was 2.33×10^−5 Torr and a convection gauge pressure of 0.90 Torr. […]

[3] = target: bovine cardiac myosin (Bos taurus (Bovine), UniProt Q9BE39); assay: Myosin inhibition assay (bcMF serum pCa 6 IC50), 10% human serum; assay type: biochemical; settings: in the presence of 10% human serum
Chain of bovine cardiac myosin (Q9BE39 whole entry): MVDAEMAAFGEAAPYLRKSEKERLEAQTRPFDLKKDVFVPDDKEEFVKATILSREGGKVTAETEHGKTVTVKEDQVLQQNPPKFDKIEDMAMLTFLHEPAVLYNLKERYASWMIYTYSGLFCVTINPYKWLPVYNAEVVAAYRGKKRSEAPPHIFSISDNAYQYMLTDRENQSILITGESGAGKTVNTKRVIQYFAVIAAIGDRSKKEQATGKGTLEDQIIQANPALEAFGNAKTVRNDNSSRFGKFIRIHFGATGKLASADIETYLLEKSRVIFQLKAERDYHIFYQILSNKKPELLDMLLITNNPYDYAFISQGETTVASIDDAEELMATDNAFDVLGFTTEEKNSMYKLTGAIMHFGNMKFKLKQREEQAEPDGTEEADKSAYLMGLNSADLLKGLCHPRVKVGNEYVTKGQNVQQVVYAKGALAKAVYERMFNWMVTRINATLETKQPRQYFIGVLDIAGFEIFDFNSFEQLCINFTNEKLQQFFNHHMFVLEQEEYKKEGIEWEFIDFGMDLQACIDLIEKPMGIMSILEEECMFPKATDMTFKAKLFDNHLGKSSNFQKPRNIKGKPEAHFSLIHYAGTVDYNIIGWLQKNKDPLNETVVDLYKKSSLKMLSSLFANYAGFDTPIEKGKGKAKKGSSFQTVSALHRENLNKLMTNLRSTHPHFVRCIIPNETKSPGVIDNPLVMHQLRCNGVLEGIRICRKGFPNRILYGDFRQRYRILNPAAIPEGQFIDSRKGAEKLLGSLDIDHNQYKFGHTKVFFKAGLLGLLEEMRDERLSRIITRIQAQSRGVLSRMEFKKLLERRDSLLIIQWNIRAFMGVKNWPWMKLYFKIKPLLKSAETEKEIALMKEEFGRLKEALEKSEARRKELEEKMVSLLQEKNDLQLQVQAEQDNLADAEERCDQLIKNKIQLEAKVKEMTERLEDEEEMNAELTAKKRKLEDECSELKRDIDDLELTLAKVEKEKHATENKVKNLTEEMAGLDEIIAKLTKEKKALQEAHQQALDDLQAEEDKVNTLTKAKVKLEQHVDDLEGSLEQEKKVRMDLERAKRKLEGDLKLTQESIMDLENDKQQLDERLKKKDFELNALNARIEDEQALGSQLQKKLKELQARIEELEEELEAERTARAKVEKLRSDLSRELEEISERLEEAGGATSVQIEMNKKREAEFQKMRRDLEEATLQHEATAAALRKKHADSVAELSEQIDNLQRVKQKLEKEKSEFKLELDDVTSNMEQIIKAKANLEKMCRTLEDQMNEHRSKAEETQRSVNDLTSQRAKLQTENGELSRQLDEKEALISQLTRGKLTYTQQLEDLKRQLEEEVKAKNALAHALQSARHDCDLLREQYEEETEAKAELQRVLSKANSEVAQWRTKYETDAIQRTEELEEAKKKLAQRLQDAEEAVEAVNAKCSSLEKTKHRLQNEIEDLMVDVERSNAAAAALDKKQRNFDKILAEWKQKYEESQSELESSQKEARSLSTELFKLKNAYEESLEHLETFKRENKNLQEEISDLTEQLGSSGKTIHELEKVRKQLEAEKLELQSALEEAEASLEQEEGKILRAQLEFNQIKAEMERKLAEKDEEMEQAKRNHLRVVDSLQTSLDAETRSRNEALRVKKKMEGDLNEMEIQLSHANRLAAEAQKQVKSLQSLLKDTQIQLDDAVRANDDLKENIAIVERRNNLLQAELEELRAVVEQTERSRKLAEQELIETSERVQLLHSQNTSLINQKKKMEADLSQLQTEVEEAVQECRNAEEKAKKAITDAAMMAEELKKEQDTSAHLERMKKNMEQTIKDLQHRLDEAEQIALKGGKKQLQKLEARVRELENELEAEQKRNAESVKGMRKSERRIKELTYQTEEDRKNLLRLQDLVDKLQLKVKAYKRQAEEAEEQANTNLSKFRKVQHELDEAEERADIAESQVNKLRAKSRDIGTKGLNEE
Chain of bovine cardiac myosin (P85100 whole entry partner): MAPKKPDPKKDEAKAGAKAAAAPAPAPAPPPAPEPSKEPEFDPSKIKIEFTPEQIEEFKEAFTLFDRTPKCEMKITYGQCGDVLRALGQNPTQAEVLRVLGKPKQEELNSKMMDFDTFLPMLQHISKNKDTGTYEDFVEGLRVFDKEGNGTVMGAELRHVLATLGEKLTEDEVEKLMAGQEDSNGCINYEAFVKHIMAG
Chain of bovine cardiac myosin (Q3SZE5 whole entry partner): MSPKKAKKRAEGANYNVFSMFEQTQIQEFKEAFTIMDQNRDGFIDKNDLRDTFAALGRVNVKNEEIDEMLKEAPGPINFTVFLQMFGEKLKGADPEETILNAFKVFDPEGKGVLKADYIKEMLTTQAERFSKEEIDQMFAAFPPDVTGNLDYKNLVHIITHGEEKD
Source text: Myosin Inhibition Assay (bcMF Serum pCa 6 IC50 (μM))
Inhibition of the enzymatic activity of bovine cardiac myosin associated with the release of ADP (adenosine diphosphate) at the calcium concentrate that achieves a 50% activation of the bovine cardiac myofibril system in the presence of 10% human serum. The procedure was the same as that bovin cardiac myosin inhibition assay (bcMF pCa 6 IC50 (μM)) but with the addition of 10% human serum.

% GSH-adduct (+NADPH, +GSH) relative to parent (−NADPH, −GSH) [2] | Glutathione Adduct Detection in Human Liver Microsome Incubations (single measurement) ([2]; single measurement) | Glutathione Adduct Detection in Human Liver Microsome Incubations, Average (triple measurements) ([2]; triple measurements) | IC50 [3] | SMILES | Cardiac selectivity ratio vs rbskMF pCa 6 IC50 [1]
Not Detected | Not Detected | Not Detected | 1.56 µM | Cc1ccc(F)c([C@@H]2Nc3[nH]c(=O)n(C4CCOCC4)c(=O)c3C[C@@H]2F)c1 [Compound 3, (6S,7S)-6-fluoro-7-(2-fluoro-5-methylphenyl)-3-(tetrahydro-2H-pyran-4-yl)-5,6,7,8-tetrahydropyrido[2,3-d]pyrimidine-2, 4 (1H, 3H)-dione] | 4.51
Not Detected | – | – | 3.49 µM | O=c1[nH]c2c(c(=O)n1C1CCOCC1)CC(F)(F)[C@H](c1cccc(F)c1)N2 [Compound C-1, (S)-6,6-difluoro-7-(3-fluorophenyl)-3-(tetrahydro-2H-pyran-4-yl)-5,6,7,8-tetrahydropyrido[2,3-d]pyrimidine-2,4(1H,3H)-dione, reference compound] | 5.48
